Measurements reported in ChEMBL document CHEMBL1145498, “A systematic interaction map of validated kinase inhibitors with Ser/Thr kinases” (Proc Natl Acad Sci U S A, 2007).

What follows are compounds tested against Calcium/calmodulin-dependent protein kinase type 1D (Homo sapiens) (UniProt Q8IU85).

ΔTm | SMILES
0.1 °C | O=C(O)/C=C/c1cc(CO)ccc1CO
0 °C | CN(C)c1ccc(CC2C(=O)Nc3ccccc32)cc1 (stereo not drawn)
0.1 °C | O=c1ccc2ccc(O)c(O)c2o1 [DAPHNETIN]

These compounds were tested against Calcium/calmodulin-dependent protein kinase type II subunit delta (Homo sapiens) (UniProt Q13557).
Chain of Calcium/calmodulin-dependent protein kinase type II subunit delta (Homo sapiens) (Q13557 whole entry): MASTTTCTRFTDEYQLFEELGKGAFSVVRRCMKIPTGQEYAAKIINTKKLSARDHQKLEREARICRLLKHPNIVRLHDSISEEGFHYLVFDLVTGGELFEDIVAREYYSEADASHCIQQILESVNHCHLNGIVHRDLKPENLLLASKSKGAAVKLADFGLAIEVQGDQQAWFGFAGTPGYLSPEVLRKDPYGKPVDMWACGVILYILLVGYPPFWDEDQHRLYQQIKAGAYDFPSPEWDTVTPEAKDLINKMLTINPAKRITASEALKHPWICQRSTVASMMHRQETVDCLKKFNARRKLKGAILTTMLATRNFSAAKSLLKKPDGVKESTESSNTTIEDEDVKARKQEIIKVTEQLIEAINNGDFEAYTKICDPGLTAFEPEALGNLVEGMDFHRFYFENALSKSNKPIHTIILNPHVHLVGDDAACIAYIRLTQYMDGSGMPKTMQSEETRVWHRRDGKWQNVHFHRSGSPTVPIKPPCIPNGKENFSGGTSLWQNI

ΔTm | SMILES
0 °C | O=C(O)/C=C/c1cc(CO)ccc1CO
0.5 °C | CN(C)c1ccc(CC2C(=O)Nc3ccccc32)cc1 (stereo not drawn)
-0.1 °C | O=c1ccc2ccc(O)c(O)c2o1 [DAPHNETIN]

The compounds below were run against Calcium/calmodulin-dependent protein kinase type II subunit gamma (Homo sapiens) (UniProt Q13555).
Chain of Calcium/calmodulin-dependent protein kinase type II subunit gamma (Homo sapiens) (Q13555 whole entry): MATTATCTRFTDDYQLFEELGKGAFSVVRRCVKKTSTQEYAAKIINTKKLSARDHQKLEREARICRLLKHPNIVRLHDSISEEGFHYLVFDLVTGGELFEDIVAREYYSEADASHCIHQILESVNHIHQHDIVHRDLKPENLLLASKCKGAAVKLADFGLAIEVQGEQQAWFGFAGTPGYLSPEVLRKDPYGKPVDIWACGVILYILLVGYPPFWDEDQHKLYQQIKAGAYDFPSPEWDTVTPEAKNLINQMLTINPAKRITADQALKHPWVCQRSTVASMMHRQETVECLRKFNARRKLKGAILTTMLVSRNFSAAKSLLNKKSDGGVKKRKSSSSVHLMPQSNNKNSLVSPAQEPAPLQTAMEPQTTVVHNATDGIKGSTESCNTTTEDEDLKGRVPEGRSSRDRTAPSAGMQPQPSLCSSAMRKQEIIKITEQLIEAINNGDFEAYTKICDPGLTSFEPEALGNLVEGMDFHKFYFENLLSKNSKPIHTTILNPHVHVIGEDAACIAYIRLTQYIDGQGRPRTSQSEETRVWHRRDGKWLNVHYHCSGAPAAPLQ

ΔTm | SMILES
0.1 °C | O=C(O)/C=C/c1cc(CO)ccc1CO
0.2 °C | CN(C)c1ccc(CC2C(=O)Nc3ccccc32)cc1 (stereo not drawn)
0 °C | O=c1ccc2ccc(O)c(O)c2o1 [DAPHNETIN]

These compounds were tested against Cyclin-dependent kinase 2 (Homo sapiens, UniProt P24941).

ΔTm | SMILES
0.9 °C | O=C(O)/C=C/c1cc(CO)ccc1CO
1 °C | CN(C)c1ccc(CC2C(=O)Nc3ccccc32)cc1 (stereo not drawn)
0.7 °C | O=c1ccc2ccc(O)c(O)c2o1 [DAPHNETIN]

Each compound was assayed against Dual specificity protein kinase CLK2 (Homo sapiens) (UniProt P49760).
Chain of Dual specificity protein kinase CLK2 (Homo sapiens) (P49760 whole entry, looked up): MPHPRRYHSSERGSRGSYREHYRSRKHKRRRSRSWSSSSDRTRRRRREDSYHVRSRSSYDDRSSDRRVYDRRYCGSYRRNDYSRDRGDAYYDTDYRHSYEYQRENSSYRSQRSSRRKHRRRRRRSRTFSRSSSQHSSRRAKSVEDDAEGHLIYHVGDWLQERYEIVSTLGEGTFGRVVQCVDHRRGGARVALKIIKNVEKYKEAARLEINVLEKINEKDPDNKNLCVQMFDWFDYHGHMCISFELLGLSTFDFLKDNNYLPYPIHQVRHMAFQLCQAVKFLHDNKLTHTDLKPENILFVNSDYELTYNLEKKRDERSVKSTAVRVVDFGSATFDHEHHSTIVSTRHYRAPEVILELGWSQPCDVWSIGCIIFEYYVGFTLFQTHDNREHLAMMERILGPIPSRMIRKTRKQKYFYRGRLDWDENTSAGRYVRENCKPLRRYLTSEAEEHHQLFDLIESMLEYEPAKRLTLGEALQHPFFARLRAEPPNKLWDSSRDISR

ΔTm | SMILES
0.6 °C | O=C(O)/C=C/c1cc(CO)ccc1CO
1.7 °C | CN(C)c1ccc(CC2C(=O)Nc3ccccc32)cc1 (stereo not drawn)
0.1 °C | O=c1ccc2ccc(O)c(O)c2o1 [DAPHNETIN]

What follows are compounds tested against Death-associated protein kinase 3 (Homo sapiens) (UniProt O43293).

SMILES | ΔTm
O=C(O)/C=C/c1cc(CO)ccc1CO | 0.8 °C
CN(C)c1ccc(CC2C(=O)Nc3ccccc32)cc1 (stereo not drawn) | -0.8 °C
O=c1ccc2ccc(O)c(O)c2o1 [DAPHNETIN] | -0.6 °C

These compounds were tested against T1, Myotonin-protein kinase (Homo sapiens) (UniProt Q09013).
T1 sequence (whole entry): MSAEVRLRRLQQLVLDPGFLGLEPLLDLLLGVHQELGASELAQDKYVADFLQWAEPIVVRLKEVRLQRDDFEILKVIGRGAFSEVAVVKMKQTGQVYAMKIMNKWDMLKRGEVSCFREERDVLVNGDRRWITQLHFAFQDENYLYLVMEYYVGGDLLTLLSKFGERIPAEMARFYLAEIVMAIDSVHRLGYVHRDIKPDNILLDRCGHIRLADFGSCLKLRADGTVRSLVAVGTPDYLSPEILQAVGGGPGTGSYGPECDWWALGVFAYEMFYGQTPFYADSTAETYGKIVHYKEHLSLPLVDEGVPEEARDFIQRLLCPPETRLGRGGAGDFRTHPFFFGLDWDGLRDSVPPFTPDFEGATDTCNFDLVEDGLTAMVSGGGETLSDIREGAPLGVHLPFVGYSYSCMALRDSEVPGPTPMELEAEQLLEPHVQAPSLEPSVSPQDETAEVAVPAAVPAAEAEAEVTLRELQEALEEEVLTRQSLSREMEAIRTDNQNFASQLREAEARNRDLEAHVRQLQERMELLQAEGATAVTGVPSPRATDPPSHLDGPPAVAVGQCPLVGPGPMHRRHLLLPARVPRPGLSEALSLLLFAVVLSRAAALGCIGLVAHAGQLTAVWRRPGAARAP

ΔTm | SMILES
-0.1 °C | O=C(O)/C=C/c1cc(CO)ccc1CO
-1.8 °C | CN(C)c1ccc(CC2C(=O)Nc3ccccc32)cc1 (stereo not drawn)
-0.6 °C | O=c1ccc2ccc(O)c(O)c2o1 [DAPHNETIN]

The compounds below were run against Dual specificity mitogen-activated protein kinase kinase 2 (Homo sapiens, UniProt P36507).

ΔTm | SMILES
-0.1 °C | O=C(O)/C=C/c1cc(CO)ccc1CO
1.4 °C | CN(C)c1ccc(CC2C(=O)Nc3ccccc32)cc1 (stereo not drawn)
-0.3 °C | O=c1ccc2ccc(O)c(O)c2o1 [DAPHNETIN]

What follows are compounds tested against Mitogen-activated protein kinase 11 (Homo sapiens, UniProt Q15759).

ΔTm | SMILES
0.3 °C | O=C(O)/C=C/c1cc(CO)ccc1CO
0.3 °C | CN(C)c1ccc(CC2C(=O)Nc3ccccc32)cc1 (stereo not drawn)
-0.7 °C | O=c1ccc2ccc(O)c(O)c2o1 [DAPHNETIN]

The compounds below were run against Serine/threonine-protein kinase 26 (Homo sapiens) (UniProt Q9P289).

ΔTm | SMILES
0.4 °C | O=C(O)/C=C/c1cc(CO)ccc1CO
0.7 °C | CN(C)c1ccc(CC2C(=O)Nc3ccccc32)cc1 (stereo not drawn)
-0.4 °C | O=c1ccc2ccc(O)c(O)c2o1 [DAPHNETIN]

Each compound was assayed against Serine/threonine-protein kinase OSR1 (Homo sapiens) (UniProt O95747).
Chain of Serine/threonine-protein kinase OSR1 (Homo sapiens) (O95747 2-527 limits assumed): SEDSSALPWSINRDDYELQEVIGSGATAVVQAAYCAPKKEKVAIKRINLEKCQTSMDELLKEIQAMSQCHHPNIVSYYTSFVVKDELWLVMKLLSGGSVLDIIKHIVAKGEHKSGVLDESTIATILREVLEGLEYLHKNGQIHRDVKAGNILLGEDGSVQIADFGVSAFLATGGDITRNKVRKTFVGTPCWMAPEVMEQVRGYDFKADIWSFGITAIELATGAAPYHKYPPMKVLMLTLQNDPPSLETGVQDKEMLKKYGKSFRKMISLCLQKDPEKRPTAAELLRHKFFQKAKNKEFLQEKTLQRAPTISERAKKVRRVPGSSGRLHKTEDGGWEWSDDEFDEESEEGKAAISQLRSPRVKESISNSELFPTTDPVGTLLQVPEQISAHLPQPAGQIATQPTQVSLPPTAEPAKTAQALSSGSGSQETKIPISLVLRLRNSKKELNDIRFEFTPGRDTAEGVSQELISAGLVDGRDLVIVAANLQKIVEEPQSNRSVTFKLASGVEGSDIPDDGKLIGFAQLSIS

ΔTm | SMILES
0.5 °C | O=C(O)/C=C/c1cc(CO)ccc1CO
-0.6 °C | CN(C)c1ccc(CC2C(=O)Nc3ccccc32)cc1 (stereo not drawn)
0.1 °C | O=c1ccc2ccc(O)c(O)c2o1 [DAPHNETIN]

Each compound was assayed against Serine/threonine-protein kinase PAK 5 (Homo sapiens) (UniProt Q9P286).
Chain of Serine/threonine-protein kinase PAK 5 (Homo sapiens) (Q9P286 whole entry, looked up): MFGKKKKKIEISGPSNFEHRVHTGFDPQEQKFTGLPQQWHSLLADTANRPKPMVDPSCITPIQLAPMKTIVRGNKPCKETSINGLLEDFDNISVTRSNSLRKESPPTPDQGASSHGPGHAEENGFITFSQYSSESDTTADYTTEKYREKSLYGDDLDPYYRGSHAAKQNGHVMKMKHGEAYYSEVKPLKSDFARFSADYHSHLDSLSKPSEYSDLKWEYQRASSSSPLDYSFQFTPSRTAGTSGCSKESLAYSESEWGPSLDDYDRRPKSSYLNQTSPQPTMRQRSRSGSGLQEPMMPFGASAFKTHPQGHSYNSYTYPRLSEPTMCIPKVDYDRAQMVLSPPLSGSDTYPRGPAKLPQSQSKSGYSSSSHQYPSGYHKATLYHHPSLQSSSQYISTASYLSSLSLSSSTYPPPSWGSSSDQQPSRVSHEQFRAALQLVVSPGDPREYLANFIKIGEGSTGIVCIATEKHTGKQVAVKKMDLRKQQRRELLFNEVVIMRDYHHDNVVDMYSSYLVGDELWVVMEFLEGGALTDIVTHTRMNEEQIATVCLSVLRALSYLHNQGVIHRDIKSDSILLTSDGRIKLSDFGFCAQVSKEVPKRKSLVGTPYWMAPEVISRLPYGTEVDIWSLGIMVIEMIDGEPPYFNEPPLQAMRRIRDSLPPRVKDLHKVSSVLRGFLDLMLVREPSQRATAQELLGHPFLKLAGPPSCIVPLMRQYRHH

ΔTm | SMILES
-4.4 °C | O=C(O)/C=C/c1cc(CO)ccc1CO
0.3 °C | CN(C)c1ccc(CC2C(=O)Nc3ccccc32)cc1 (stereo not drawn)
-0.1 °C | O=c1ccc2ccc(O)c(O)c2o1 [DAPHNETIN]

Each compound was assayed against Serine/threonine-protein kinase pim-1 (Homo sapiens) (UniProt P11309).
Chain of Serine/threonine-protein kinase pim-1 (Homo sapiens) (P11309 whole entry, looked up): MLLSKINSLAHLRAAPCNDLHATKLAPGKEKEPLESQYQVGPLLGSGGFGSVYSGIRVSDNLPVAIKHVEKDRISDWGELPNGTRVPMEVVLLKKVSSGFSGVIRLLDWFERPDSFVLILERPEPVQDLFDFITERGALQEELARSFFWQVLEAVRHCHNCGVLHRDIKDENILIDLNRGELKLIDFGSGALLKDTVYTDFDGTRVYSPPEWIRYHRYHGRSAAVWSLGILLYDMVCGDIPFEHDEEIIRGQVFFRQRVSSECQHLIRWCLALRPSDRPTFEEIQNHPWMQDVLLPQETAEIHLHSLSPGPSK

ΔTm | SMILES
0.6 °C | O=C(O)/C=C/c1cc(CO)ccc1CO
-0.2 °C | CN(C)c1ccc(CC2C(=O)Nc3ccccc32)cc1 (stereo not drawn)
0.2 °C | O=c1ccc2ccc(O)c(O)c2o1 [DAPHNETIN]

The compounds below were run against Serine/threonine-protein kinase pim-2 (Homo sapiens, UniProt Q9P1W9).
Chain of Serine/threonine-protein kinase pim-2 (Q9P1W9 whole entry, looked up): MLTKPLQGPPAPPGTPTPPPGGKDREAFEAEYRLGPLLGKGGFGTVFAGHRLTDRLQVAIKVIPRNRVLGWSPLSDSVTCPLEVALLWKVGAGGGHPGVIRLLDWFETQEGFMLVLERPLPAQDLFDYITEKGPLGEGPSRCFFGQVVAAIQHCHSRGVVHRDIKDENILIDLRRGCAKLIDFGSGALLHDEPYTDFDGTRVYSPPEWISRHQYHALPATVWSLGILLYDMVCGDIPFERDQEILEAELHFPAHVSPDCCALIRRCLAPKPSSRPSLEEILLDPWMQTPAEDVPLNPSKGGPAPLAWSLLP

ΔTm | SMILES
1.6 °C | O=C(O)/C=C/c1cc(CO)ccc1CO
0.4 °C | CN(C)c1ccc(CC2C(=O)Nc3ccccc32)cc1 (stereo not drawn)
0.7 °C | O=c1ccc2ccc(O)c(O)c2o1 [DAPHNETIN]

The compounds below were run against Serine/threonine-protein kinase pim-3 (Homo sapiens) (UniProt Q86V86).

ΔTm | SMILES
2.2 °C | O=C(O)/C=C/c1cc(CO)ccc1CO
1.2 °C | CN(C)c1ccc(CC2C(=O)Nc3ccccc32)cc1 (stereo not drawn)
0.8 °C | O=c1ccc2ccc(O)c(O)c2o1 [DAPHNETIN]

These compounds were tested against Ribosomal protein S6 kinase alpha-3 (Homo sapiens) (UniProt P51812).
Chain of Ribosomal protein S6 kinase alpha-3 (Homo sapiens) (P51812 whole entry): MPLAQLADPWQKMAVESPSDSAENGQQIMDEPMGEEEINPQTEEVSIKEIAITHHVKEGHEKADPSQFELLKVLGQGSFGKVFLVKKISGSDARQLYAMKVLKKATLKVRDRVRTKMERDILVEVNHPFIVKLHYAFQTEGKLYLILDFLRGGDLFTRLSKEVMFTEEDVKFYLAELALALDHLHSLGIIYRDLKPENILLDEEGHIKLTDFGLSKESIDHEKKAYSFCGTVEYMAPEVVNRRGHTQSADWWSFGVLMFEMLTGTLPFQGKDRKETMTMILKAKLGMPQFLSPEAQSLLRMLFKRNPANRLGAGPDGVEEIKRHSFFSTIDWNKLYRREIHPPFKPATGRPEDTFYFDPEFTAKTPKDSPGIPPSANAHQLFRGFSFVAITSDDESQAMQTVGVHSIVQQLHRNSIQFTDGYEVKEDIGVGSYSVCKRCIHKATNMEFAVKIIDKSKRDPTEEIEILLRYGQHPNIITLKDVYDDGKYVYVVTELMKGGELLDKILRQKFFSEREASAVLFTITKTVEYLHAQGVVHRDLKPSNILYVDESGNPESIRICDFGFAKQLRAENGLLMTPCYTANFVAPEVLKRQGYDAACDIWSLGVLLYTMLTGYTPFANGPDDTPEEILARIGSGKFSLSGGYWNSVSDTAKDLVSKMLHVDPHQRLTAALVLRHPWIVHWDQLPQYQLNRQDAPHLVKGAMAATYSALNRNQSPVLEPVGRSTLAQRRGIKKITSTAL

ΔTm | SMILES
0.3 °C | O=C(O)/C=C/c1cc(CO)ccc1CO
0.9 °C | CN(C)c1ccc(CC2C(=O)Nc3ccccc32)cc1 (stereo not drawn)
0.1 °C | O=c1ccc2ccc(O)c(O)c2o1 [DAPHNETIN]

Each compound was assayed against T2, Serine/threonine-protein kinase 17A (Homo sapiens) (UniProt Q9UEE5).
T2 sequence (whole entry): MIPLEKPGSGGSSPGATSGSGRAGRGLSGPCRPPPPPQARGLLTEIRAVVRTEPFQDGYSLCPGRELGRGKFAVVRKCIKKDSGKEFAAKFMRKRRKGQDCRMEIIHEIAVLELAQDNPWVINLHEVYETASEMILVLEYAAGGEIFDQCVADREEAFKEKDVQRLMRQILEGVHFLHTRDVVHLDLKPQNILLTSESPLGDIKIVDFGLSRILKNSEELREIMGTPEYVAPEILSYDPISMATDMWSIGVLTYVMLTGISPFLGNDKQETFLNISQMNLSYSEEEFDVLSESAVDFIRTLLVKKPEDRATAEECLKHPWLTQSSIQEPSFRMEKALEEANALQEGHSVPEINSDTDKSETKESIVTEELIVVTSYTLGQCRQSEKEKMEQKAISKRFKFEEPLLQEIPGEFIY

ΔTm | SMILES
0.6 °C | O=C(O)/C=C/c1cc(CO)ccc1CO
6.2 °C | CN(C)c1ccc(CC2C(=O)Nc3ccccc32)cc1 (stereo not drawn)
0.4 °C | O=c1ccc2ccc(O)c(O)c2o1 [DAPHNETIN]

Biological target: Serine/threonine-protein kinase 26 (Homo sapiens) (UniProt Q9P289)
Remark: another data set of the same source

ΔTm | SMILES
0.2 °C | O=C(O)/C=C/c1cc(CO)ccc1CO
0.3 °C | CN(C)c1ccc(CC2C(=O)Nc3ccccc32)cc1 (stereo not drawn)
-0.2 °C | O=c1ccc2ccc(O)c(O)c2o1 [DAPHNETIN]

The compounds below were run against T3, Lymphokine-activated killer T-cell-originated protein kinase (Homo sapiens) (UniProt Q96KB5).
T3 sequence (whole entry): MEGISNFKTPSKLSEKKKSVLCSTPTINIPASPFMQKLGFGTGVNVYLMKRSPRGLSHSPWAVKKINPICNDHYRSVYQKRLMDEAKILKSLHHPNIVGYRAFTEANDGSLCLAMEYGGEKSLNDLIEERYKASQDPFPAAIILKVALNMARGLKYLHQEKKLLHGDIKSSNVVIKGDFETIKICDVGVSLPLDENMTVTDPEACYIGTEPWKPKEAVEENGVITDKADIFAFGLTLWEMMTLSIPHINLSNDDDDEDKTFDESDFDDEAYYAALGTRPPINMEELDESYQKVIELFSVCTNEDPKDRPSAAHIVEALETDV

SMILES | ΔTm
O=C(O)/C=C/c1cc(CO)ccc1CO | 0.8 °C
CN(C)c1ccc(CC2C(=O)Nc3ccccc32)cc1 (stereo not drawn) | 0.1 °C
O=c1ccc2ccc(O)c(O)c2o1 [DAPHNETIN] | -0.4 °C

The compounds below were run against T4, Serine/threonine-protein kinase VRK1 (Homo sapiens) (UniProt Q99986).
T4 sequence (whole entry): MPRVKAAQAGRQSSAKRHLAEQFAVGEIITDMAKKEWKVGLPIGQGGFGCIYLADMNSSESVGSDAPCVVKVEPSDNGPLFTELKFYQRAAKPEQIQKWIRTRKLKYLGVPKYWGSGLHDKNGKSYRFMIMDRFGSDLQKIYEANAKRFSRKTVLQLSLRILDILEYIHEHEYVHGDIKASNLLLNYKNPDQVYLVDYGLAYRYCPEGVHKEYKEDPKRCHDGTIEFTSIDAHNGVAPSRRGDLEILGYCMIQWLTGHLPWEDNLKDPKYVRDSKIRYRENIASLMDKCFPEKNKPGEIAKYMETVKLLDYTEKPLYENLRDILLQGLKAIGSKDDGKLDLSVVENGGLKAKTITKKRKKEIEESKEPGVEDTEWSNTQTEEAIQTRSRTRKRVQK

ΔTm | SMILES
0.4 °C | O=C(O)/C=C/c1cc(CO)ccc1CO
-0.2 °C | CN(C)c1ccc(CC2C(=O)Nc3ccccc32)cc1 (stereo not drawn)
0 °C | O=c1ccc2ccc(O)c(O)c2o1 [DAPHNETIN]

What follows are compounds tested against Serine/threonine-protein kinase 25 (Homo sapiens) (UniProt O00506).
Chain of Serine/threonine-protein kinase 25 (Homo sapiens) (O00506 whole entry, looked up): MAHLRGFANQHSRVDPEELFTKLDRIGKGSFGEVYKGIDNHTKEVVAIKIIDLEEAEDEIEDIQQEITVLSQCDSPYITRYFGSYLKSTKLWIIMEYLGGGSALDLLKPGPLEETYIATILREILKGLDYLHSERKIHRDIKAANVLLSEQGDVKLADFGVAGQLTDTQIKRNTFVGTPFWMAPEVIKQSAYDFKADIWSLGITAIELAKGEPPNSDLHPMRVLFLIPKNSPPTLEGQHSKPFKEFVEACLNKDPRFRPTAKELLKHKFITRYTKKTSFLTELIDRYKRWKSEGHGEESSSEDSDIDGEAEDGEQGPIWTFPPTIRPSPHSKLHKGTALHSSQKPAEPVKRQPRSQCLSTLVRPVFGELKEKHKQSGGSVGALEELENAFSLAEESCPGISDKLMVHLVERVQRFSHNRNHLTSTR

ΔTm | SMILES
0.5 °C | O=C(O)/C=C/c1cc(CO)ccc1CO
2.4 °C | CN(C)c1ccc(CC2C(=O)Nc3ccccc32)cc1 (stereo not drawn)
-0.5 °C | O=c1ccc2ccc(O)c(O)c2o1 [DAPHNETIN]
